# Measured values: BindingDB's records for patent US10221174 (University of Michigan, 2019)
# pIC50: −log10 of the molar value.
# Molecular target: Isoform Bcl-X(L) of Bcl-2-like protein 1 (Bcl-xL) (Homo sapiens, UniProt Q07817)
# Sequence (Q07817 whole entry G70A, canonical isoform): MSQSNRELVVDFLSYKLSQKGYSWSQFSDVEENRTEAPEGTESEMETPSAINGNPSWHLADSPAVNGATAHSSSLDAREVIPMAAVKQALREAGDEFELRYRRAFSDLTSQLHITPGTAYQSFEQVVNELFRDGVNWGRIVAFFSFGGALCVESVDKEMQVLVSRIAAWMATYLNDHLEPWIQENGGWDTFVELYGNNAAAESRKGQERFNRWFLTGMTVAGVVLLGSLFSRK
row,Compound,pIC50
1,"O=C(NS(=O)(=O)c1cc([N+](=O)[O-])c2cnn(CC3CCOCC3)c2c1)c1ccc(N2CCN(CC3=C(c4ccc(Cl)cc4)CC4(CCC4)CC3)CC2)cc1Oc1cnc2[nH]ccc2c1 [US10221174, Compound 62]",8.40
2,"O=C(NS(=O)(=O)c1cc([N+](=O)[O-])c2cnn(C3CCOCC3)c2c1)c1ccc(N2CCN(CC3=C(c4ccc(Cl)cc4)CC4(CCC4)CC3)CC2)cc1Oc1cnc2[nH]ccc2c1 [US10221174, Compound 64]",8.06
